Assay [1] concerns the target T1, human blood platelet PDE5 (Homo sapiens, UniProt O76074).
T1 construct: obtained by suitably treating various tissues and separating the enzyme with FPLC; from tissue; host or cells: human blood platelets
The assay can be described thus: PDE5 enzyme inhibition activity test (scintillation proximity). It is filed as biochemical. The protocol: (§1) More specifically, PDE5 and PDE3 were obtained from human blood platelet, and PDE6 was separated from bovine retina. Upon enzyme was separated out, the enzyme inhibition activity test would be carried out immediately. The said enzyme inhibition activity test was performed by directly detecting the scintillation proximity of AMP/GMP using TRKQ7100 and TRKQ7090 kits, which was generally as follows. In the presence of different concentrations of inhibitor and a small amount of substrate, 10 μl of buffer (50 mM Tris/HCl PH 7.5, 8.3 mM MgCl2, 1.7 mM EGTA) was added, and then water was added to a final volume of 100 μl. The reaction was initiated with a fixed amount of enzyme, incubated at 30° C. for 30 min, and then quenched with 50 μl of yttrium silicate beads comprising zinc sulphate. After shaken for 20 min, the reaction mixture was put in dark and settled for 30 min, and then readed on a BECKMAN LS6500 MULTI-PURPOSE SCINTILLATION COUNTER.
A general note: In a scintillation proximity assay essentially only radioactivity close to the scintillant gives light.

A further assay deals with T2, PDE6 in bovine retina (Bos taurus, UniProt P11541+P23439).
T2 construct: obtained by suitably treating various tissues and separating the enzyme with FPLC; from tissue; host or cells: bovine retina
T2 sequence (P11541 2-856 limits assumed): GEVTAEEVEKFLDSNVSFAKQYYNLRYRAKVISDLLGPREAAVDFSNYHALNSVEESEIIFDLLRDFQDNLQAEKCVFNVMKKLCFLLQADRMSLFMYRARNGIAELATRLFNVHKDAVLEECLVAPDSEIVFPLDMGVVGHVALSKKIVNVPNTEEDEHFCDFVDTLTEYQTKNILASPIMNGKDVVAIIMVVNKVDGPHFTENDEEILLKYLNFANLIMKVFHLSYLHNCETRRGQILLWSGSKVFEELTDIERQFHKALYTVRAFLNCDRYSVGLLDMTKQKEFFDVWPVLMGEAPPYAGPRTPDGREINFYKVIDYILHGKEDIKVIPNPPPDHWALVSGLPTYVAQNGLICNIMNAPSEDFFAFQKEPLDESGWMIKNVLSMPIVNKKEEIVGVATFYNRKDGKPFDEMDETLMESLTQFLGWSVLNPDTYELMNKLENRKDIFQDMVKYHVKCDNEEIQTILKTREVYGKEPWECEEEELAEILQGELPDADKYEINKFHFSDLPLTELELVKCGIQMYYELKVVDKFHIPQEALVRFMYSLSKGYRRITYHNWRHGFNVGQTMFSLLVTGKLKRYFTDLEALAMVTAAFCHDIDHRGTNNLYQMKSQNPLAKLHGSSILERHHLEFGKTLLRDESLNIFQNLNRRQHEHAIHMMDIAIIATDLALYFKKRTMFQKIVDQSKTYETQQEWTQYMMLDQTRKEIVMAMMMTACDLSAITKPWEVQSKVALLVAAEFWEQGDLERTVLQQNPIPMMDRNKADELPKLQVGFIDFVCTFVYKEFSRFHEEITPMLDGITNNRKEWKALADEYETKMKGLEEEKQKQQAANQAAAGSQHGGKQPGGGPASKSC
T2 sequence (P23439 2-850 limits assumed): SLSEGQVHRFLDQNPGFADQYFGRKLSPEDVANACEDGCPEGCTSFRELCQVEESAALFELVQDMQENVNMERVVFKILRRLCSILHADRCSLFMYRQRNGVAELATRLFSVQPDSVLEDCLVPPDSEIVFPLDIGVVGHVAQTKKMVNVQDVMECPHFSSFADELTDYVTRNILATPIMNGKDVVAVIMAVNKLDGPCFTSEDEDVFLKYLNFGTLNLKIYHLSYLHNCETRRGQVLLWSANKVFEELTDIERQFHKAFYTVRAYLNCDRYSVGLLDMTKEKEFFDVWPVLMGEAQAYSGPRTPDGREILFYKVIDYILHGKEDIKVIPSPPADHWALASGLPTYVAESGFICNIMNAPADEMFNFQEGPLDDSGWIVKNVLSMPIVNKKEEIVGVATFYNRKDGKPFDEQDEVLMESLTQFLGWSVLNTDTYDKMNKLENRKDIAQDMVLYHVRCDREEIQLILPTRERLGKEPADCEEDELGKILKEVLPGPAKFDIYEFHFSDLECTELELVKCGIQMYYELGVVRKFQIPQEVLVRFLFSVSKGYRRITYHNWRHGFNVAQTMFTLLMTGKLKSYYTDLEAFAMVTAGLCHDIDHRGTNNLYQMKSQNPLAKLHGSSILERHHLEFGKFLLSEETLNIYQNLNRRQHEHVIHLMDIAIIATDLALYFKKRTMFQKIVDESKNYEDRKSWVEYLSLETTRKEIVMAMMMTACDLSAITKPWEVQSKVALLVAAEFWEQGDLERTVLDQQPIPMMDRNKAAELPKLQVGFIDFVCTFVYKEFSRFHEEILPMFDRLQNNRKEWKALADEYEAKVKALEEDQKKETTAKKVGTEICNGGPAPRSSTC
The assay can be described thus: PDE6 enzyme inhibition activity test (scintillation proximity). It is filed as biochemical. The following applies: for PDE6 IC50/PDE5 IC50: selectivity, ratio of IC50 PDE6/IC50 PDE5. The protocol: as §1

Setting [2] is: PDE6 separated from bovine retina, read-out: PDE6 IC50.

Molecules are shown by their SMILES. Where two headings read alike, the source gives them in different places.

With `CCCOc1ccc(NC(C)=O)cc1-c1nc(CC)c(CC)c(=O)[nH]1` [Example 53, N-(3-(1,6-dihydro-4,5-diethyl-6-oxopyrimidin-2-yl)-4-propoxyphenyl)acetamide], the results for the IC50 (in assay [1] (PDE5 table); in assay [1] (as repeated in the PDE6 table); on PDE6 in bovine retina (setting [2])) were 0.57 nM, 0.57 nM and 36.8 nM, respectively. On PDE6 in bovine retina, the “PDE6 IC50/PDE5 IC50” value amounted to 66.2.

Turning to `CCCOc1ccc(C(=O)N2CCN(C)CC2)cc1-c1nc(CC)c(CC)c(=O)[nH]1` [Example 205], the IC50 in assay [1] (PDE5 table) is 1.93 nM; in assay [1] (as repeated in the PDE6 table), 1.93 nM; at PDE6 in bovine retina (setting [2]) it was 17.2 nM. Further, at PDE6 in bovine retina, the “PDE6 IC50/PDE5 IC50” value is 8.9.

As to `CCCOc1ccc(NS(C)(=O)=O)cc1-c1nc(C(C)C)c(Br)c(=O)[nH]1` [Example 50, 5-Bromo-6-isopropyl-2-(2-n-propoxy-5-mesylamidophenyl)pyrimid-4(3H)-one], the IC50 was determined as 1.24 nM in assay [1] (PDE5 table) and 114 nM at PDE6 in bovine retina (setting [2]). Further, the “PDE6 IC50/PDE5 IC50” value at PDE6 in bovine retina amounted to 91.9.

Take `CCCOc1ccc(S(=O)(=O)NCCS(=O)(=O)O)cc1-c1nc(CC)c(CC)c(=O)[nH]1` [Example 125, 2-(N-(3-(4,5-diethyl-1,6-dihydro-6-oxopyrimidin-2-yl)-4-n-propoxyphenyl)sulfonyl)aminoethylsulfonic acid]: the figures for the IC50 (in assay [1] (PDE5 table); in assay [1] (as repeated in the PDE6 table); against PDE6 in bovine retina) were 0.19 nM, 0.19 nM and 2.71 nM, respectively. The “PDE6 IC50/PDE5 IC50” value at PDE6 in bovine retina came to 14.6.

In the case of `CCCOc1ccc(C(=O)NC(Cc2ccc(O)cc2)C(=O)OC)cc1-c1nc(CC)c(CC)c(=O)[nH]1` (stereo not drawn) [Example 140, methyl 2-(3-(4,5-diethyl-1,6-dihydro-6-oxopyrimidin-2-yl)-4-n-propoxybenzamido)-3-(4-hydroxyphenyl)propionate], the IC50 in assay [1] (PDE5 table) was found to be 0.57 nM; in assay [1] (as repeated in the PDE6 table), 0.57 nM; on PDE6 in bovine retina (setting [2]), 4.25 nM. Besides, the “PDE6 IC50/PDE5 IC50” value on PDE6 in bovine retina came out at 7.5.

In the case of `CCCOc1ccc(NC(C)=O)cc1-c1nc(C(C)C)c(Br)c(=O)[nH]1` [Example 52, N-(3-(1,6-dihydro-4-isopropyl-5-bromo-6-oxopyrimidin-2-yl)-4-propoxyphenyl)acetamide], the IC50 in assay [1] (PDE5 table) came out at 1.46 nM; in assay [1] (as repeated in the PDE6 table), 1.46 nM; on PDE6 in bovine retina (setting [2]), 52.6 nM. For the same compound, the “PDE6 IC50/PDE5 IC50” value on PDE6 in bovine retina was 36.0.

Take `CCCOc1ccc(NC(=O)c2ccccc2)cc1-c1nc(CC)c(CC)c(=O)[nH]1` [Example 186, N-(3-(4,5-diethyl-1,6-dihydro-6-oxopyrimidin-2-yl)-4-n-propoxyphenyl)benzamide]: the IC50 is 0.34 nM in assay [1] (PDE5 table), 0.34 nM in assay [1] (as repeated in the PDE6 table) and 7.4 nM at PDE6 in bovine retina (setting [2]). For the same compound, on PDE6 in bovine retina, the “PDE6 IC50/PDE5 IC50” value is listed as 21.4.

With `CCCOc1ccc(NC(=O)C(Cc2ccccc2)NC(C)=O)cc1-c1nc(CC)c(CC)c(=O)[nH]1` (stereo not drawn) [Example 110, 2-acetamido-N-(3-(4,5-diethyl-1,6-dihydro-6-oxopyrimidin-2-yl)-4-n-propoxyphenyl)-3-phenylpropionamide], the IC50 in assay [1] (PDE5 table) stood at 2.85 nM; in assay [1] (as repeated in the PDE6 table), 2.85 nM; on PDE6 in bovine retina (setting [2]), 22.2 nM. In addition, the “PDE6 IC50/PDE5 IC50” value at PDE6 in bovine retina amounted to 7.80.

For the compound `CCCOc1ccc(NC(=S)NCC)cc1-c1nc(CC)c(CC)c(=O)[nH]1` [Example 43, 1-(3-(4,5-Diethyl-1,6-dihydro-6-oxopyrimidin-2-yl)-4-n-propoxyphenyl)-3-ethylthiourea], the IC50 in assay [1] (PDE5 table) came out at 3.72 nM; in assay [1] (as repeated in the PDE6 table) it was 3.72 nM; at PDE6 in bovine retina (setting [2]), 42.8 nM. Further, on PDE6 in bovine retina, the “PDE6 IC50/PDE5 IC50” value stood at 11.5.

Take `CCCOc1ccc(C(=O)NC(Cc2ccccc2)C(=O)O)cc1-c1nc(CC)c(CC)c(=O)[nH]1` (stereo not drawn) [Example 138, 2-(3-(4,5-diethyl-1,6-dihydro-6-oxopyrimidin-2-yl)-4-n-propoxybenzamido)-3-phenylpropionic acid]: the IC50 in assay [1] (PDE5 table) was determined as 0.47 nM; in assay [1] (as repeated in the PDE6 table) it was 0.47 nM; on PDE6 in bovine retina (setting [2]) it was 5.42 nM. The “PDE6 IC50/PDE5 IC50” value on PDE6 in bovine retina worked out at 11.4.

By IC50 is commonly meant the point on the concentration scale where inhibition reaches its midpoint.

Source of the values: US8871777B2, “Phenylpyrimidone compounds, the pharmaceutical compositions, preparation methods and uses thereof” (Topharman Shanghai Co., Ltd., priority 2008, dated 2014).
